From patent US20260217708A1, “FUSED BENZAZEPINE DERIVATIVES FOR USE IN THE TREATMENT OF CANCER AND EPILEPSY” (UCB BIOPHARMA SRL, priority 2023, published 2026)

Legend:
system Xc^− [1] = target: T1, system Xc^− (Homo sapiens, UniProt Q9UPY5); assay: [^14C]L-Cystine uptake assay; assay type: cell-based; design: endogenous in cells; host or cells: H4 cells; conditions: H4 cells, sodium-free HEPES buffer, 0.5 μM L-[14C]Cystine and 4.5 μM L-Cystine, 1 hour at 37° C.; read-out: pIC50 [^14C] L-Cystine uptake assay (converted)
T1 sequence (Q9UPY5 1-501): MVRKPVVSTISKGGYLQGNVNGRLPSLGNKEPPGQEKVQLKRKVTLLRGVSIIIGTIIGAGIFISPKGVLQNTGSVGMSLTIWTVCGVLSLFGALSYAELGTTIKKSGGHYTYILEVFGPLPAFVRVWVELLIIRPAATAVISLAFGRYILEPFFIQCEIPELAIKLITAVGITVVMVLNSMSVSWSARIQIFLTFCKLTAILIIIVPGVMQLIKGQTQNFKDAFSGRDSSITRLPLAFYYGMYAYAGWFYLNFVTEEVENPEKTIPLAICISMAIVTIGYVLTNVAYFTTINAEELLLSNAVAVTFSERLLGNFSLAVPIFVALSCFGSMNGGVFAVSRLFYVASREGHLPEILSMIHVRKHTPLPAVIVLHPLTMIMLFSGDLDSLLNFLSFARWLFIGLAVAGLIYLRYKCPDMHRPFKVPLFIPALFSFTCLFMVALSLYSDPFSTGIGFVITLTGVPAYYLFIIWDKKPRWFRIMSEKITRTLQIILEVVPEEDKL
T1 sequence (P08195 1-529 partner): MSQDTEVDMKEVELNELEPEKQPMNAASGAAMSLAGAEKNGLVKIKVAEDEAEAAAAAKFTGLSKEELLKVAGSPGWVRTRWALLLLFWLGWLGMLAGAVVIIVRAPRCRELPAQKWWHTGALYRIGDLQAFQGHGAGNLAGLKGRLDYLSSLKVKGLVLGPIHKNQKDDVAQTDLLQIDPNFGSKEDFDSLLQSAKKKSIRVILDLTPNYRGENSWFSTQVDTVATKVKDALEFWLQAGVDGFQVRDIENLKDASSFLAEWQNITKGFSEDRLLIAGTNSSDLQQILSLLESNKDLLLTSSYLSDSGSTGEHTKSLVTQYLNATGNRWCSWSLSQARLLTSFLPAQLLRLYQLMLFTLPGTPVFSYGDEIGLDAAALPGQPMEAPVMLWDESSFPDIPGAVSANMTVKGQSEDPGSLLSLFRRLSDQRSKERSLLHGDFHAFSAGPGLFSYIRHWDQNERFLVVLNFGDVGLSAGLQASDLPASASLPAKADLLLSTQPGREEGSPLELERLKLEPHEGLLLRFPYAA
Summary of the method: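 H4 cells at 5×10^4 cells/well in sodium-free HEPES buffer were preincubated 15 min with compounds (1% DMSO). Uptake of 0.5 μM [14C]L-cystine plus 4.5 μM unlabelled L-cystine ran 1 hour at 37° C on scintillating plates. IC50 was set between 1% DMSO and 50 μM Erastin controls and expressed as pIC50.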

system Xc^− [2] = target: T1, system Xc^−; assay: Cystine-induced glutamate release assay; assay type: cell-based; design: endogenous in cells; host or cells: H4 cells; conditions: H4 cells, sodium-free HEPES buffer, 50 μM L-Cystine, 2 hours, Amplex Red glutamate readout; read-out: pIC50 Cystine-induced glutamate release assay (converted)
Summary of the method: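 H4 cells in sodium-free HEPES buffer (pH 7.4), 2 days after plating; glutamate release induced with 50 μM L-cystine plus compound (1% DMSO), 2 h at 37 °C. Supernatant glutamate measured by Amplex Red fluorescence; IC50/pIC50 derived between 1% DMSO and 50 μM erastin controls.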

Row | IC50 (system Xc^− [1]) | IC50 (system Xc^− [2]) | SMILES
1 | 0.0158 to 0.0398 µM | 0.0398 to 0.1 µM | CC1C(=O)N(CC(=O)Nc2ccc(C(F)F)cc2)c2cc(C3CC3)nc(Cl)c2-c2cccnc21 (stereo not shown) [#347, 2-(3-chloro-5-cyclopropyl-10-methyl-9-oxo-4,8,12-triazatricyclo[9.4.0.0^2,7]pentadeca-1(15),2,4,6,11,13-hexaen-8-yl)-N-[4-(difluoromethyl)phenyl]acetamide]
2 | 0.0158 to 0.0398 µM | < 0.0158 µM | Cc1cc2c(c(Cl)n1)-c1cccnc1C(C)C(=O)N2CC(=O)Nc1ccc(Br)cc1F (single isomer, unassigned) [#227, Enantiomer (10S) or (10R) of N-(4-bromo-2-fluoro-phenyl)-2-[3-chloro-5,10-dimethyl-9-oxo-4,8,12-triazatricyclo[9.4.0.0^2,7]pentadeca-1(11),2(7),3,5,12,14-hexaen-8-yl]acetamide]
3 | < 0.0158 µM | 0.0158 to 0.0398 µM | Cc1cc2c(c(F)n1)-c1cccnc1C(C)C(=O)N2CC(=O)Nc1ccc(C(F)(F)F)cc1 (stereo not shown) [#84, 2-(3-fluoro-5,10-dimethyl-9-oxo-4,8,12-triazatricyclo[9.4.0.0^2,7]pentadeca-1(11),2(7),3,5,12,14-hexaen-8-yl)-N-[4-(trifluoromethyl)phenyl]acetamide]
4 | 0.0398 to 0.1 µM | 0.0158 to 0.0398 µM | O=C(CN1C(=O)Cc2ncccc2-c2c1cc(N1CC3(CC3)C1)nc2F)Nc1ccc(C(F)F)cc1 [#294, 2-[5-(5-azaspiro[2.3]hexan-5-yl)-3-fluoro-9-oxo-4,8,12-triazatricyclo[9.4.0.0^2,7]pentadeca-1(15),2,4,6,11,13-hexaen-8-yl]-N-[4-(difluoromethyl)phenyl]acetamide]
5 | 0.0158 to 0.0398 µM | 0.0398 to 0.1 µM | Cc1cc2c(c(=O)n1C1CC1)-c1cccnc1C(C)C(=O)N2CC(=O)Nc1ccc(Cl)c(F)c1 (stereo not shown) [#179, N-(4-chloro-3-fluoro-phenyl)-2-(4-cyclopropyl-5,10-dimethyl-3,9-dioxo-4,8,12-triazatricyclo[9.4.0.0^2,7]pentadeca-1(11),2(7),5,12,14-pentaen-8-yl)acetamide]
6 | 0.0158 to 0.0398 µM | 0.0158 to 0.0398 µM | COc1nc(C)cc2c1-c1cccnc1C(O)C(=O)N2CC(=O)Nc1ccc(C(F)(F)F)cc1 (stereo not shown) [#96, 2-(10-hydroxy-3-methoxy-5-methyl-9-oxo-4,8,12-triazatricyclo[9.4.0.0^2,7]pentadeca-1(11),2,4,6,12,14-hexaen-8-yl)-N-[4-(trifluoromethyl)phenyl]acetamide]
7 | < 0.0158 µM | < 0.0158 µM | Cc1cc2c(c(C#N)n1)-c1cccnc1C(C)C(=O)N2CC(=O)Nc1ccc(Cl)c(F)c1 (single isomer, unassigned) [#155, N-(4-chloro-3-fluoro-phenyl)-2-[3-cyano-5,10-dimethyl-9-oxo-4,8,12-triazatricyclo[9.4.0.0^2,7]pentadeca-1(11),2(7),3,5,12,14-hexaen-8-yl]acetamide]
8 | 0.0398 to 0.1 µM | 0.0398 to 0.1 µM | Cc1cc2c(c(F)n1)-c1cccnc1C(C)C(=O)N2CC(=O)Nc1ccc(F)c(F)c1 (stereo not shown) [#130, N-(3,4-difluorophenyl)-2-(3-fluoro-5,10-dimethyl-9-oxo-4,8,12-triazatricyclo[9.4.0.0^2,7]pentadeca-1(11),2(7),3,5,12,14-hexaen-8-yl)acetamide]
9 | < 0.0158 µM | 0.0158 to 0.0398 µM | CC1C(=O)N(CC(=O)Nc2ccc(C(F)F)cc2)c2cc(C3(F)CC3)ncc2-c2cc(F)cnc21 (single isomer, unassigned) [#325, N-[4-(difluoromethyl)phenyl]-2-[14-fluoro-5-(1-fluorocyclopropyl)-10-methyl-9-oxo-4,8,12-triazatricyclo[9.4.0.0^2,7]pentadeca-1(11),2,4,6,12,14-hexaen-8-yl]acetamide]
10 | < 0.0158 µM | 0.0158 to 0.0398 µM | Cc1cc2c(c(Cl)n1)-c1cncnc1[C@@H](C)C(=O)N2CC(=O)Nc1ccc(C(F)(F)F)cc1 (single isomer, unassigned) [#207, Enantiomer (8S) or (8R) of 2-[15-chloro-8,13-dimethyl-9-oxo-4,6,10,14-tetrazatricyclo[9.4.0.0^2,7]pentadeca-1(11),2,4,6,12,14-hexaen-10-yl]-N-[4-(trifluoromethyl)phenyl]acetamide]
11 | 0.0398 to 0.1 µM | 0.0398 to 0.1 µM | CC1C(=O)N(CC(=O)Nc2ccc(C(F)F)cc2)c2cc(C3CC3C(F)(F)F)cc(F)c2-c2cccnc21 (stereo not shown) [#346, N-[4-(difluoromethyl)phenyl]-2-[11-fluoro-5-methyl-6-oxo-9-[2-(trifluoromethyl)cyclopropyl]-5H-pyrido[2,3-d][1]benzazepin-7-yl]acetamide]
12 | 0.0398 to 0.1 µM | 0.0158 to 0.0398 µM | Cc1cc2c(c(=O)o1)-c1cccnc1C(C)C(=O)N2CC(=O)Nc1ccc(C(F)F)cc1 (single isomer, unassigned) [#360, N-[4-(difluoromethyl)phenyl]-2-[5,10-dimethyl-3,9-dioxo-4-oxa-8,12-diazatricyclo[9.4.0.0^2,7]pentadeca-1(15),2(7),5,11,13-pentaen-8-yl]acetamide]

The remaining lines, values behind:

Row | SMILES | IC50 (system Xc^− [1]) | IC50 (system Xc^− [2])
13 | COc1cnc2c(c1)-c1cnc(C)cc1N(CC(=O)Nc1ccc(Cl)c(F)c1)C(=O)C2C (single isomer, unassigned) [#415, N-(4-chloro-3-fluoro-phenyl)-2-[14-methoxy-5,10-dimethyl-9-oxo-4,8,12-triazatricyclo[9.4.0.0^2,7]pentadeca-1(15),2,4,6,11,13-hexaen-8-yl]acetamide] | < 0.0158 µM | < 0.0158 µM
14 | O=C(CN1C(=O)Cc2ncccc2-c2c1cc(Cl)c(F)c2Cl)Nc1ccc(C(F)(F)F)cc1 [#52, 2-(9,11-dichloro-10-fluoro-6-oxo-5H-pyrido[2,3-d][1]benz-azepin-7-yl)-N-[4-(trifluoromethyl)phen-yl]acetamide] | 0.1 to 0.501 µM | 0.1 to 0.501 µM
15 | Cc1cc2c(cc1C)-n1nccc1CC(=O)N2CC(=O)Nc1ccc(C(F)(F)F)cc1 [#5, 2-(8,9-dimethyl-5-oxo-4H-pyrazolo[5,1-d][1,5]benzodiazepin-6-yl)-N-[4-(trifluoromethyl)phenyl]acetamide] | 0.0398 to 0.1 µM | 0.1 to 0.501 µM
16 | Cc1cc2c(c(F)n1)-c1ncccc1C(C)C(=O)N2CC(=O)Nc1ccc(Cl)c(F)c1 (single isomer, unassigned) [#401, N-(4-chloro-3-fluoro-phenyl)-2-[15-fluoro-8,13-dimethyl-9-oxo-3,10,14-triazatricyclo[9.4.0.0^2,7]pentadeca-1(15),2,4,6,11,13-hexaen-10-yl]acetamide] | < 0.0158 µM | < 0.0158 µM
17 | Cc1cc2c(c(F)n1)-c1c(F)cccc1CC(=O)N2CC(=O)Nc1ccc(C(F)(F)F)cc1 [#87, 2-(1,11-difluoro-3-methyl-6-oxo-7H-pyrido[4,3-d][3]benzazepin-5-yl)-N-[4-(trifluoromethyl)phenyl]acetamide] | 0.0398 to 0.1 µM | 0.1 to 0.501 µM
18 | COc1nc(F)cc2c1-c1cccnc1CC(=O)N2CC(=O)Nc1ccc(C(F)(F)F)cc1 [#113, 2-(5-fluoro-3-methoxy-9-oxo-4,8,12-triazatricyclo[9.4.0.0^2,7]pentadeca-1(11),2,4,6,12,14-hexaen-8-yl)-N-[4-(trifluoromethyl)phenyl]acetamide] | < 0.0158 µM | 0.0398 to 0.1 µM
19 | Cc1cc2c(c(Cl)n1)-c1cccnc1CC(=O)N2CC(=O)Nc1ccc(C(F)(F)F)cc1 [#97, 2-(3-chloro-5-methyl-9-oxo-4,8,12-triazatricyclo[9.4.0.0^2,7]pentadeca-1(11),2(7),3,5,12,14-hexaen-8-yl)-N-[4-(trifluoromethyl)phenyl]acetamide] | < 0.0158 µM | 0.0398 to 0.1 µM
20 | CC(=O)N(C)c1nc2c(s1)-c1ccccc1CC(=O)N2CC(=O)Nc1ccc(C(F)(F)F)cc1 [#118, 2-[2-[acetyl(methyl)amino]-5-oxo-6H-thiazolo[4,5-d][3]benzazepin-4-yl]-N-[4-(trifluoromethyl)phenyl]acetamide] | 0.0398 to 0.1 µM | 0.1 to 0.501 µM
